Source: US12466839B2, “Allosteric AKT inhibitors for use in the treatment of Hereditary Hemorrhagic Telangiectasia” (VADERIS THERAPEUTICS AG, priority 2020, dated 2025)

Assays:
Format in all cases: cell-based
Kv4.3 = Kv4.3 (Homo sapiens, UniProt Q9UK17); assay: Cardiac ion channel profile
C5aR = molecular target: T1, C5aR (Homo sapiens, UniProt P21730); assay: Millipore Drug Discovery Safety and Liability Panel
T1 construct: purchased Millipore

AKT = AKT inhibition in primary lung endothelial cells with complete loss of Eng expression (western blot); settings: Endothelial cell; lung mouse endothelial cells with complete loss of Eng expression; VEGF-A stimulation
M1 = molecular target: T2, M1 (Homo sapiens, UniProt P11229); assay: Millipore Drug Discovery Safety and Liability Panel
T2 construct: purchased Millipore

[1] = tested on: AKT kinase in Pi3Kα or PTEN mutant cells lines (e.g. MCF7, BT474 or LnCAP); assay: AKT kinase inhibition in Pi3Kα or PTEN mutant cell lines; settings: read-out: IC50 range for AKT kinase inhibition
5-HT2C = molecular target: T3, 5-HT2C (Homo sapiens, UniProt P28335); assay: Millipore Drug Discovery Safety and Liability Panel
T3 construct: purchased Millipore

PRP = molecular target: T4, PRP (Homo sapiens, UniProt P49683); assay: as above
T4 construct: Millipore

BDKR2 = molecular target: T5, BDKR2 (Homo sapiens, UniProt P30411); assay: as above
T5 construct: purchased Millipore

H2 = molecular target: T6, H2 (Homo sapiens, UniProt P25021); assay: as above
T6 construct: purchased Millipore

H1 = molecular target: T7, H1 (Homo sapiens, UniProt P35367); assay: as above
T7 construct: purchased Millipore

Motilin = molecular target: T8, Motilin (Homo sapiens, UniProt O43193); assay: as above
T8 construct: purchased Millipore

NTR1 = molecular target: T9, NTR1 (Homo sapiens, UniProt P30989); assay: as above
T9 construct: Millipore

ADRB2 = molecular target: T10, ADRB2 (Homo sapiens, UniProt P07550); assay: as above
T10 construct: purchased Millipore

CB1 = molecular target: T11, CB1 (Homo sapiens, UniProt P21554); assay: as above
T11 construct: purchased Millipore

[2] = read-out: ANTAGONIST mean % inhibition
[3] = read-out: AGONIST mean % increase in activity

T9 sequence (P30989 whole entry, species assumed): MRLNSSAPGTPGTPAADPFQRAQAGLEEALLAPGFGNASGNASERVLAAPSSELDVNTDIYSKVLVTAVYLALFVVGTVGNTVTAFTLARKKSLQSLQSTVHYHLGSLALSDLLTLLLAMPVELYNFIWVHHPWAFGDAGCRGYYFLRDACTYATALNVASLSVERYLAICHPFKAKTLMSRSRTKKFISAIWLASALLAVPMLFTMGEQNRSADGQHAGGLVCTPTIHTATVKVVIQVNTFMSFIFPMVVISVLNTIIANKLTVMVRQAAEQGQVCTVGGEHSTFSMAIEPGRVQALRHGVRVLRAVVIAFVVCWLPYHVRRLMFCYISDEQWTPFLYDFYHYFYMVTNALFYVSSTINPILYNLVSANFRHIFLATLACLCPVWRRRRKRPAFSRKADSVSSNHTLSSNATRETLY
T6 sequence (P25021 whole entry): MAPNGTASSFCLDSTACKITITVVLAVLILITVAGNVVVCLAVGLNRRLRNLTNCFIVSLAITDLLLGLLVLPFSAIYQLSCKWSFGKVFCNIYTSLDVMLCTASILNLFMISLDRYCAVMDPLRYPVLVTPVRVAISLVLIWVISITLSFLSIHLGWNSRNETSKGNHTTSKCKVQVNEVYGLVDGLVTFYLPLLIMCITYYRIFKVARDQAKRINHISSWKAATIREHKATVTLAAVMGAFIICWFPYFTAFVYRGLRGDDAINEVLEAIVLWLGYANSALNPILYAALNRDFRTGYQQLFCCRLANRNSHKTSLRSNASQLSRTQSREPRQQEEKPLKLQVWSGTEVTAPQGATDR
T5 sequence (P30411 whole entry): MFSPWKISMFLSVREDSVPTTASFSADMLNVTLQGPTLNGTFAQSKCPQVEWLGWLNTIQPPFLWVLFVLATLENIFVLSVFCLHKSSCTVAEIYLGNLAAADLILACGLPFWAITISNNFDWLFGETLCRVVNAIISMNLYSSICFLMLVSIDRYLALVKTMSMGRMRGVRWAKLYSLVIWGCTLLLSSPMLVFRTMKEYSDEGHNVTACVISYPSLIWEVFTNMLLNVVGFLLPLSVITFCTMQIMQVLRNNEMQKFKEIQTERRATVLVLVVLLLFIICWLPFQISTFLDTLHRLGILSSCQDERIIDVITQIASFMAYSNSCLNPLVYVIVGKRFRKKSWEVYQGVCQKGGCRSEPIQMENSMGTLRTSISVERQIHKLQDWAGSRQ
T7 sequence (P35367 whole entry): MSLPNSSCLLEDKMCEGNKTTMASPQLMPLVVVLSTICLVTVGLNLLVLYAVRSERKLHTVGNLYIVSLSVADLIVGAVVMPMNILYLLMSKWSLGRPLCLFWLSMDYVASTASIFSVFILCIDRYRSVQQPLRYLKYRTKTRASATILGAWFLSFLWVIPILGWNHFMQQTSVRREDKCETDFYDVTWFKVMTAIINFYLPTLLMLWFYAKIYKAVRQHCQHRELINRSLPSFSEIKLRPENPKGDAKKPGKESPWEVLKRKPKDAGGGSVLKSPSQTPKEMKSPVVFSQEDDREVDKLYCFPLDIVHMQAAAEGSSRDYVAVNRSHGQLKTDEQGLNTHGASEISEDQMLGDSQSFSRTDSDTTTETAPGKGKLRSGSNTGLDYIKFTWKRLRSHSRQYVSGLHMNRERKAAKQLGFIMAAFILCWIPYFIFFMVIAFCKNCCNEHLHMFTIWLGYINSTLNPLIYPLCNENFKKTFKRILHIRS
T1 sequence (P21730 whole entry): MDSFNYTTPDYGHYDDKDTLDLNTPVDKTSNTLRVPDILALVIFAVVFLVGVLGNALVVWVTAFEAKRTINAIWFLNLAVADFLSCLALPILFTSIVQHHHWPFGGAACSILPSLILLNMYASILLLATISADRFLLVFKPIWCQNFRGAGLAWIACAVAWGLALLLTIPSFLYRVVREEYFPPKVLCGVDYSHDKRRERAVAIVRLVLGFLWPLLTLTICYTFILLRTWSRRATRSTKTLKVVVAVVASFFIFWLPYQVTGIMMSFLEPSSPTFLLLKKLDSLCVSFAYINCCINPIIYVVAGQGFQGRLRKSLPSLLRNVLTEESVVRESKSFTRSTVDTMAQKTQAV
T2 sequence (P11229 whole entry): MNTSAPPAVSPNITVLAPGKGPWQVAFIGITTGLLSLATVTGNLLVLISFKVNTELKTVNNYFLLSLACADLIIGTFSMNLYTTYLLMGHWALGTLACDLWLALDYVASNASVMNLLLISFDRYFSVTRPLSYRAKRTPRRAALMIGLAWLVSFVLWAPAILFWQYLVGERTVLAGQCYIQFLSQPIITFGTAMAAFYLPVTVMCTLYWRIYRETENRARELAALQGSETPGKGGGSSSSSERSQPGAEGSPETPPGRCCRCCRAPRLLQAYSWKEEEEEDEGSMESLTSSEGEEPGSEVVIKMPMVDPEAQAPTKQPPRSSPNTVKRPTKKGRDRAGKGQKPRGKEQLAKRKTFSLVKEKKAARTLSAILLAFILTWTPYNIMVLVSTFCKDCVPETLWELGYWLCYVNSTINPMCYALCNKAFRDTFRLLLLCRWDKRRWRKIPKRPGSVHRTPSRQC
T10 sequence (P07550 whole entry): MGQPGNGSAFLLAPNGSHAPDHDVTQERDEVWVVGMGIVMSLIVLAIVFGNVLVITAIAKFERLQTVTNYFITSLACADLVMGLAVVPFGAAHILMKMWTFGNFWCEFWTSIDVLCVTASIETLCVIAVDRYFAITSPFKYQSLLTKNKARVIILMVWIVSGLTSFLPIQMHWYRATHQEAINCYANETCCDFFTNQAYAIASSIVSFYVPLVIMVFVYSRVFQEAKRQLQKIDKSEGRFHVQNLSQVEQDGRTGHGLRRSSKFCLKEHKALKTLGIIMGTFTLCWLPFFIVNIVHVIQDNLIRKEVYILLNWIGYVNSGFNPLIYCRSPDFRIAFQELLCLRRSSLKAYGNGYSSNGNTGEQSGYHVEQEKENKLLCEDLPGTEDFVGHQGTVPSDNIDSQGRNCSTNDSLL
T8 sequence (O43193 whole entry): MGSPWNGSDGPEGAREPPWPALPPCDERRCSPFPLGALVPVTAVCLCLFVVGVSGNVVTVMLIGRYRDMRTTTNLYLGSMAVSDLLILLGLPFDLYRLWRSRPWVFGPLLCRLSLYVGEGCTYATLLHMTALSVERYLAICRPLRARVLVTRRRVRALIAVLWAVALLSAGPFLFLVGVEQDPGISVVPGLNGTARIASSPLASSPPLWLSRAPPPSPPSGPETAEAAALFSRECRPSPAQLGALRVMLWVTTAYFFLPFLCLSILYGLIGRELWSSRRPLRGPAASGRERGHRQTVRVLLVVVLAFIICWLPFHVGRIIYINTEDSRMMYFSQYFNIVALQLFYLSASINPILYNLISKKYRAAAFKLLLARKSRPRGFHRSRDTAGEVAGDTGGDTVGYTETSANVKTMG
T4 sequence (P49683 whole entry): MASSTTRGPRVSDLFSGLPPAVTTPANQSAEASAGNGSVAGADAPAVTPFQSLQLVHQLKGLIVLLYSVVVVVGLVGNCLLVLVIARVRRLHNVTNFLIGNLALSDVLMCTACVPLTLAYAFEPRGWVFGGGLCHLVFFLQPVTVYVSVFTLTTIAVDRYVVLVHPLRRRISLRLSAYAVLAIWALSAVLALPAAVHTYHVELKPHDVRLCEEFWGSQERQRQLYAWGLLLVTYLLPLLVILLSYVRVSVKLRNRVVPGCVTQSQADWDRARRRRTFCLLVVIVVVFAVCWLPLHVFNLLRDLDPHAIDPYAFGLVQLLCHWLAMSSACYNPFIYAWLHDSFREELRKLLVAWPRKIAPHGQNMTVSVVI
T11 sequence (P21554 whole entry): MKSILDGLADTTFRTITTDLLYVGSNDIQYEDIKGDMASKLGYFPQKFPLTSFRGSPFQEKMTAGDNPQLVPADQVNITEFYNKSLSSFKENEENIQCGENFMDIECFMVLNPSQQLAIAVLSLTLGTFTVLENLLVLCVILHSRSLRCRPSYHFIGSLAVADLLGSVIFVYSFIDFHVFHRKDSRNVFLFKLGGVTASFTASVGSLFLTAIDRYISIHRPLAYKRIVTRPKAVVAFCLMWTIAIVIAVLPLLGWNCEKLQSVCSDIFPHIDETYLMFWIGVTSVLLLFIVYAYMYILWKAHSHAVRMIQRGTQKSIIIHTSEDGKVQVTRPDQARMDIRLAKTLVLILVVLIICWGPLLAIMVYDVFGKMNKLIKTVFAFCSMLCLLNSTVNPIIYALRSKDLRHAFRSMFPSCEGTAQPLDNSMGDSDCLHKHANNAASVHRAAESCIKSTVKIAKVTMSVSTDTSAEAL
T3 sequence (P28335 33-458, species assumed): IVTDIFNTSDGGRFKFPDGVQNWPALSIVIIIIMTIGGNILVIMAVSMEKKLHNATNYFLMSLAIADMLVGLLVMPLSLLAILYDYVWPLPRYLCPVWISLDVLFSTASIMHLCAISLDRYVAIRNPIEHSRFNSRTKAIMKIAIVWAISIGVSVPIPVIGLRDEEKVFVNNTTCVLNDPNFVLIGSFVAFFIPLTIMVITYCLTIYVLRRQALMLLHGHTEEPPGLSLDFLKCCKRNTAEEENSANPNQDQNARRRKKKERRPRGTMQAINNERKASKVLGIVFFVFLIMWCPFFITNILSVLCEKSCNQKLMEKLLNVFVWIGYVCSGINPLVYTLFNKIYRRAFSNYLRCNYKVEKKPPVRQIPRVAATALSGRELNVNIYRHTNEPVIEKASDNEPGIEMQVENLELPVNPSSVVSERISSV

CCN1C(=O)COc2nc(-c3ccc(C4(N)CC(O)C4)cc3)c(-c3ccccc3)cc21.O=C(O)C(O)C(O)C(=O)O [VAD044, 6-(4-(1-amino-3-hydroxycyclobutyl)phenyl)-1-ethyl-7-phenyl-1H-pyrido[2,3-b][1,4]oxazin-2(3H)-one L-tartrate]
inhibition at 10 µM (Kv4.3): < 25% | activation at 10 µM (C5aR; C5aR, 10 μM, read-out: AGONIST mean % increase in activity): -1.2% | inhibition at 10 µM (C5aR; [2]): 1.5% | IC50 (AKT): 93 nM | activation at 10 µM (M1; M1, 10 μM, read-out: AGONIST mean % increase in activity): -0.7% | inhibition at 10 µM (M1; [2]): -3.4% | IC50 [1]: 50 to 130 nM | activation at 10 µM (5-HT2C; [3]): 0.8% | inhibition at 10 µM (5-HT2C; [2]): 21.9% | activation at 10 µM (PRP; [3]): -0.5% | inhibition at 10 µM (PRP; [2]): 23.2% | activation at 10 µM (BDKR2; BDKR2, 10 μM, read-out: AGONIST mean % increase in activity): -0.4% | inhibition at 10 µM (BDKR2; [2]): 14.6% | activation at 10 µM (H2; H2, 10 μM, read-out: AGONIST mean % increase in activity): -0.2% | inhibition at 10 µM (H2; [2]): -1.8% | activation at 10 µM (H1; H1, 10 μM, read-out: AGONIST mean % increase in activity): -0.2% | inhibition at 10 µM (H1; [2]): 3.8% | activation at 10 µM (Motilin; [3]): -0.3% | inhibition at 10 µM (Motilin; [2]): 50% | activation at 10 µM (NTR1; NTR1, 10 μM, read-out: AGONIST mean % increase in activity): -0.6% | inhibition at 10 µM (NTR1; [2]): 6.1% | activation at 10 µM (ADRB2; ADRB2, 10 μM, read-out: AGONIST mean % increase in activity): 0.8% | inhibition at 10 µM (ADRB2; [2]): 6.1% | activation at 10 µM (CB1; CB1, 10 μM, read-out: AGONIST mean % increase in activity): -0.5% | inhibition at 10 µM (CB1; [2]): -4.1%
